Test results reported in patent US12162888B2, “Carboxamides as ubiquitin-specific protease inhibitors” (Valo Early Discovery, Inc., priority 2018, dated 2024).
Read-outs that look alike come from different tables or passages of the source.

Target: T1, USP28 (His-tagged USP28-FL-mammalian) (Homo sapiens, UniProt Q96RU2)
T1 construct: Expression of USP28 (1-1077)-TEV-6*His (pTT5 vector) was carried out in Expi293f cells; made in house; host or cells: Expi293F cells (pTT5 vector)
T1 sequence (Q96RU2 1-1077): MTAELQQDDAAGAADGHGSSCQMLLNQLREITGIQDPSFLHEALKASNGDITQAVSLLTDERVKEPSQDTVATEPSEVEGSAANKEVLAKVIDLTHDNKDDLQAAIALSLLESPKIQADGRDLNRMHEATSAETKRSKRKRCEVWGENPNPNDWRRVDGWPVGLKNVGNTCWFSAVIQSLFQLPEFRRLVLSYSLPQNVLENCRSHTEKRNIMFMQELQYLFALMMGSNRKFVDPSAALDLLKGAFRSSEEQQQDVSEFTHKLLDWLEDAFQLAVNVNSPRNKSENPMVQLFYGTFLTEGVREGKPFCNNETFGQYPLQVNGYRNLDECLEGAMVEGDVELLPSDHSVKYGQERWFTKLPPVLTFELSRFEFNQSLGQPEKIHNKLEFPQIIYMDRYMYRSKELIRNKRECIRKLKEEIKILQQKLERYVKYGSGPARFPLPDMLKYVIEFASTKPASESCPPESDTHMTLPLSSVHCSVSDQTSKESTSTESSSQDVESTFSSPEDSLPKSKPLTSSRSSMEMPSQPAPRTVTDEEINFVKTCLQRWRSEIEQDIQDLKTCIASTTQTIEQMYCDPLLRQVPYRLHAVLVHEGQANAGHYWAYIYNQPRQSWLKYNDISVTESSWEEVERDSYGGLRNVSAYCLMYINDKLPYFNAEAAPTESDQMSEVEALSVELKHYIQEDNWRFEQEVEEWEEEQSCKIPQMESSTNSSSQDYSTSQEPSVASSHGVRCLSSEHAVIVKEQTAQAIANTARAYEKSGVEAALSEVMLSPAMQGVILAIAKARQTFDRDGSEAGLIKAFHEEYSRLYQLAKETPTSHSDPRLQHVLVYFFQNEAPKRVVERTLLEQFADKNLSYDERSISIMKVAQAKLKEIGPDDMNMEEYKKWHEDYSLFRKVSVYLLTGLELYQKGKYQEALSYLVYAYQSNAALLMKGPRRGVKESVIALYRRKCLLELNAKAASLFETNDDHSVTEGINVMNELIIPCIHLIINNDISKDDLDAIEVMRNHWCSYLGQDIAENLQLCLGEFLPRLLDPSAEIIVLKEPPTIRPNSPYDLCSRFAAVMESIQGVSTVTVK
Assay: Ubiquitin-Rhodamine 110 Assay for USP28 Activity, Example A-1(a)
Format: biochemical
In short: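 IC50s were fitted with a 4-parameter logistic to percent inhibition relative to no-enzyme and DMSO controls, using Rhodamine 110 fluorescence (485/535 nm) released from 25 nM Ub-Rh110. The enzyme was Expi293F-expressed USP28-FL-His at […], preincubated 30 min with compound (10-point, 25 μM top) in Tris pH 8.0 buffer containing BGG and Triton X-100. Substrate turnover ran 45 min at room temperature and was stopped with 10 mM citric acid.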

[1] = Ubiquitin-Rhodamine 110 biochemical assay, read-out: USP28 A-1(a) IC50 range
[2] = biochemical IC50 range, Ubiquitin-Rhodamine 110 assay, read-out: USP28 A-1(a)

Row | Compound | IC50 [1] | IC50 [2]
1 | Cc1ccc2c(N)c(C(=O)N[C@H]3CCc4nc(N5C[C@H](COC(F)(F)F)[C@H](N)C5)ccc4C3)sc2n1 [Example 485, 3-amino-N-[(6S)-2-[(3S,4S)-3-amino-4-[(trifluoromethoxy)methyl]pyrrolidin-1-yl]-5,6,7,8-tetrahydroquinolin-6-yl]-6-methylthieno[2,3-b]pyridine-2-carboxamide] | 50 to 200 nM | –
2 | Cc1ccc2c(N)c(C(=O)N[C@H]3COc4cc(N5C[C@H](N)[C@@]6(CCCCO6)C5)ccc4C3)sc2n1 [Example 611-1, 3-amino-N-[(3R)-7-[(4S,5R)-4-amino-6-oxa-2-azaspiro[4.5]decan-2-yl]-3,4-dihydro-2H-1-benzopyran-3-yl]-6-methylthieno[2,3-b]pyridine-2-carboxamide] | – | 1 to 50 nM
3 | CCOc1ncc(C(=O)N[C@H]2COc3cc(N4CCNCC4)ccc3C2)c2[nH]ccc12 [Example 676, 4-ethoxy-N-[(3R)-7-(piperazin-1-yl)-3,4-dihydro-2H-1-benzopyran-3-yl]-1Hpyrrolo[3,2-c]pyridine-7-carboxamide] | – | 200 to 2000 nM
4 | CN[C@H]1CN(c2ccc3c(n2)CC[C@H](NC(=O)c2sc4nc(C)cnc4c2N)C3)C[C@@H]1OC [Example 490, 7-amino-N-[(6S)-2-[(3S,4S)-3-methoxy-4-(methylamino)pyrrolidin-1-yl]-5,6,7,8-tetrahydroquinolin-6-yl]-3-methylthieno[2,3-b]pyrazine-6-carboxamide] | 50 to 200 nM | –
5 | CN[C@H]1CN(c2ccc3c(c2)OC[C@H](NC(=O)c2sc4nc(C)ccc4c2N)C3)C[C@H]1COC [Example 679, 3-amino-N-[(3R)-7-[(3R,4R)-3-(methoxymethyl)-4-(methylamino)pyrrolidin-1-yl]-3,4-dihydro-2H-1-benzopyran-3-yl]-6-methylthieno[2,3-b]pyridine-2-carboxamide] | – | 1 to 50 nM
6 | Cc1ccc2c(N)c(C(=O)N[C@H]3CCc4nc(N5C[C@@H](COC(F)(F)F)[C@@H](N)C5)ccc4C3)sc2n1 [Example 484, 3-amino-N-[(6S)-2-[(3R,4R)-3-amino-4-[(trifluoromethoxy)methyl]pyrrolidin-1-yl]-5,6,7,8-tetrahydroquinolin-6-yl]-6-methylthieno[2,3-b]pyridine-2-carboxamide] | 200 to 2000 nM | –
7 | CN[C@H]1CN(c2ccc3c(n2)CC[C@H](NC(=O)c2sc4nc(C)cnc4c2N)C3)C[C@H]1OC [Example 496, 7-amino-N-[(6S)-2-[(3R,4S)-3-methoxy-4-(methylamino)pyrrolidin-1-yl]-5,6,7,8-tetrahydroquinolin-6-yl]-3-methylthieno[2,3-b]pyrazine-6-carboxamide] | 200 to 2000 nM | –
8 | Cc1ccc2c(N)c(C(=O)N[C@H]3COc4cc(N5CC[C@]6(CCCN6)C5)cc(F)c4C3)sc2n1 [Example 683, 3-amino-N-[(3R)-7-[(5R)-1,7-diazaspiro [4.4]nonan-7-yl]-5-fluoro-3,4-dihydro-2H-1-benzopyran-3-yl]-6-methylthieno [2,3-b]pyridine-2-carboxamide] | – | 1 to 50 nM
9 | Cc1ccc2c(N)c(C(=O)N[C@H]3CCc4nc(N5C[C@@H](COC(F)F)[C@@H](N)C5)ccc4C3)sc2n1 [Example 516, 3-amino-N-[(6S)-2-[(3R,4R)-3-amino-4-[(difluoromethoxy)methyl]pyrrolidin-1-yl]-5,6,7,8-tetrahydroquinolin-6-yl]-6-methylthieno[2,3-b]pyridine-2-carboxamide] | 50 to 200 nM | –
10 | Cc1cnc2c(N)c(C(=O)N[C@H]3CCc4nc(N5C[C@@H](N)C6(C5)OCCO6)ccc4C3)sc2n1 [Example 499, 7-amino-N-[(6S)-2-[(9R)-9-amino-1,4-dioxa-7-azaspiro[4.4]nonan-7-yl]-5,6,7,8-tetrahydroquinolin-6-yl]-3-methylthieno[2,3-b]pyrazine-6-carboxamide] | 200 to 2000 nM | –
11 | COC[C@@H]1CN(c2cc(F)c3c(c2)OC[C@H](NC(=O)c2sc4nc(C)ncc4c2N)C3)C[C@@H]1N [Example 694, 5-amino-N-[(3R)-7-[(3R,4R)-3-amino-4-(methoxymethyl)pyrrolidin-1-yl]-5-fluoro-3,4-dihydro-2H-1-benzopyran-3-yl]-2-methylthieno[2,3-d]pyrimidine-6-carboxamide] | – | 200 to 2000 nM
